The text below walks through data of patent US20070275935A1, “Estratriene Derivatives” (priority 2003, published 2007).

The test system of one series is NIH3T3 cells. Briefly: Thrombin-induced proliferation of NIH3T3 cells. The note with it: concentration not given. It counts as cell-based.
The next series has as its system Airway fibroblasts. Put plainly: bFGF-induced proliferation of airway fibroblasts from airway biopsies. The note with it: 3 μM. It counts as cell-based. An excerpt:
Airway fibroblasts were also obtained by explant culture from airway biopsies.

Series [1] has as its target colchicine binding site on tubulin. Briefly: Colchicine displacement assay on partially purified tubulin. The note with it: partially purified lamb brain tubulin, 1 μM 3H colchicine.
Protocol: For the binding assays, a partial purification of tubulin was derived from the polymerization-depolymerization method of Williams and Lee (Williams et al., 1982). Three lamb brains (approximately 150 g total) were obtained approximately fifteen minutes after slaughter. Batches of 100g of brain were homogenized in 50 mL cold PM4M buffer (100 mM piperazine-N,N′-bis[2-ethane sulfonic acid] (PIPES), 1 mM MgSO4, 2 mM ethylene glycol tetra-acetate (EGTA), 2 mM DTT, 4 M glycerol, pH 6.9) using a domestic blender (Power Blender, Ronson) on the highest setting for 30 s. The crude homogenate was centrifuged for 15 mins (9000 rpm (6500×g), 4° C.) and the precipitate (cell debris, extracellular matrix and crude nuclear fraction) discarded. The 6500×g supernatant was then centrifuged for 75 mins (28 000 rpm (96 000×g), 4° C.) and the precipitate (consisting largely of cell membranes) was discarded.
The GTP (guanosine triphosphate) concentration of the 96 000×g supernatant was adjusted to 1 mM by the addition of an appropriate amount of a freshly prepared solution of 50 mM GTP in distilled water. […]
Reaction mixtures were incubated for 30 mins at 37° C. in a water bath, followed by cold stabilization on ice for 1 to 1.5 hours. […] 5 ml “Emulsifier Safe” scintillation fluid (Packard) was added to each tube, and the samples counted in a Packard 1600TR liquid scintillation analyzer.
The subject of series [2] is mice (C57BL/6) sensitised to ovalbumin. Put plainly: Airway hyperresponsiveness to methacholine in ovalbumin-sensitised mice. The note with it: ovalbumin-challenged mice; for airway reactivity to intravenous methacholine (change in respiratory resistance) (FIG. 8): 50 mg/kg/day intraperitoneally; for airway reactivity to intravenous methacholine (change in respiratory resistance) (FIG. 9): 50 mg/kg/day orally. It counts as in vivo. The procedure:
Conscious female mice (C57BL/6) of 6-8 weeks of age were sensitised by a 0.2 ml intraperitoneal injection of 50 ug ovalbumin (in 10 mg/ml aluminium hydroxide) on day 0 and 12. and subsequently challenged with an aerosol of OVA (1% w/v)/FCS (5% v/v) on days 20-28 for 30 minutes. The aerosol exposures were achieved by placing the rodents in a whole body plethysmograph apparatus and then nebulising the […] into the chamber through a port located on the top of the chamber. The aerosol exited the chamber via a bias flow into a particle trap.
Drug treatments were administered to assess the effects of drugs on the development of airway hyperresponsiveness. Drug treatment commenced the day prior (day 19) to the first exposure to OVA (day 20) and continued throughout the period during which the mice were challenged with OVA. Drug treatment comprised 4NO or 2MEO, each at 50 mg/kg administered once daily 2h before OVA exposure to either intraperitoneally or orally in a vehicle of 10% DMSO/90% peanut oil in a volume of 100 μL.
After the 26-28 day sensitisation and challenge protocol, airway obstruction in response to the bronchoconstrictor methacholine was measured. The mice were anaesthetised with a mixture of ketamine/xylazine. A tracheostomy was performed, and a catheter placed in the jugular vein to administer methacholine intravenously. The mouse was then be placed in a whole body plethysmograph and mechanically ventilated (150 breaths/min at a tidal volume of 10 ml/kg). The transpulmonary pressure was measured with a differential pressure transducer with one port attached to the interior of the plethysmograph and the other to the intratracheal cannula. The airflow rate was measured with a pneumotachograph.
The change in airways resistance in response to intravenous methacholine (1-1000 μg/kg, given 4 minutes apart) was calculated on-line with a Buxco pulmonary mechanics analyzer.
The effects of treatment of ovalbumin-challenged mice (veh-OVA) with either 2MEO or 4NO, provided intraperitoneally at 50 mg/kg/day on airway reactivity to intravenously administered methacholine are shown in FIG. 8. Data are expressed as the change in respiratory resistance from the baseline level and are presented as the mean and standard error of the mean.
OVA challenge (veh-OVA) increased the airway reactivity to methacholine compared to that detected in non-challenged mice (veh-SAL).

For series [3], the system named is human breast tumour cell line, MCF7. Put plainly: Proliferation of MCF7 cells in response to 5% FCS or EGF. It counts as cell-based. The note with it: for effect on proliferation of MCF7 cells, in words (FIG. 3): 5% FCS or EGF 300 pM. As to the method:
(§1) The effects of 4NO were evaluated in a number of non-smooth muscle cell types including the type II airway epithelial cell line, A549 (ATCC accession number ATCC CCL-185 Lung carcinoma human) (FIG. 2); the human breast tumour cell line, MCF7, (ATTC accession number ATCC HTB-22 breast adenocarcinoma, human) which expresses the estrogen receptor (FIG. 3); and in bovine aortic endothelial cells (BAEC) (FIG. 4).
(§2) The effects of test compounds were examined on proliferation of A549 cells in response to 5% fetal calf serum (FCS). Analogues were pre-incubated with A549 cells for 30 min before the addition of FCS. The incubation continued for 48 h before cell enumeration. Data are expressed as a percentage of the cell number in vehicle treated wells and are presented as the mean and standard error of the mean. Similarly the effects of 2MEO and 4NO on proliferation of MCF7 in response to 5% FCS or epidermal growth factor (EGF, 300 pM) were examined, as were the effects of 2MEO and 4NO on proliferation of BAEC in response to 5% FCS. The incubation parameters were the same as described above and results are presented as the mean and standard error of the mean.
This assay was also used to evaluate the ability of other compounds to inhibit the proliferation of non-smooth muscle cells MCF7 and A549 (described above) in response to 5% FCS. The results of this assay are presented in Table 4 (columns G and H respectively). The potency of the compounds was considerably less in inhibiting proliferation of these cell lines than it was for HASM. These observations support the contention that there are cell type-specific targets for the actions of these compounds. Such assays may also be adopted to examine the effect of other disclosed compounds on these cells or on other non-smooth muscle cells of interest.

Series [4] has as its system HASM cells. Briefly: Shape of HASM cells in the presence of thrombin. It counts as cell-based, human. The note with it: thrombin 0.3 U/mL, 48 h. As to the method: The effects of 2MEO and 4NOM on the shape of HASM in the presence thrombin (0.3 U/mL) was investigated. Analogues were pre-incubated with HASM for 30 min before the addition of thrombin. The incubation continued for 48 h before capturing images of the HASM.

Series [5] relates to HASM cells. Put plainly: PDGF(BB)-induced migration of HASM cells (modified Boyden chamber). The note with it: PDGF(BB) 1 ng/ml, 5 h, 30 min pre-treatment. It counts as cell-based, human. The procedure:
Costar transwell culture inserts (Corning Inc, USA) with 6.5 mm diameter and […] were coated overnight at 4° C. with 0.1% gelatin (Bovine skin; Sigma, USA) prior to the commencement of the assay (modified Boyden chamber assay). HASM cells were deprived of serum for 24 h prior to the commencement of the assay. Cells were added to the upper side of the transwell inserts with or without 30 min pre-treatment with one of the test compounds. Platelet-derived growth factor(BB) (1 ng/ml) was added to the lower compartment to stimulate cell migration and the chambers and cells left for 5 h. After this period the membranes with the adherent cells were washed with PBS, and fixed for 2 min with DiffQuick (Lab Aids, Aus) fixative and then stained with DiffQuick. Membranes were then washed twice in PBS, peeled off the inserts and placed onto slides. Membranes were visualised by light microscopy, and the number of migrated cells in five fields (×400) were counted in triplicate.
The numbers of HASM appearing on the underside of the porous membrane was counted and the responses were expressed as a percentage of the number of cells migrating in response to PDGF in the absence of pre-treatment.

The test system of series [6] is bovine aortic endothelial cells (BAEC). Briefly: Proliferation of bovine aortic endothelial cells in response to 5% FCS. It counts as cell-based. As to the method: as §1, §2

`COc1cc2c(cc1O)C(=NOCc1ccc([N+](=O)[O-])cc1)C[C@@H]1[C@@H]2CC[C@]2(C)C(=NO)CC[C@@H]12` [CP-DM-3-91, 2-methoxy-6-(4-nitrobenzyloxy)iminoestrone-17-oxime]: in the series on NIH3T3 cells, the “inhibitory effect on thrombin-induced proliferation” value is given as 68±10%. Besides, in the series on Airway fibroblasts, the “reduction of bFGF (300 pM) induced proliferation” value was determined as 50±24%.
`COc1cc2c(cc1O)C(=NOCc1ccc([N+](=O)[O-])cc1)C[C@@H]1[C@@H]2CC[C@]2(C)[C@@H](O)CC[C@@H]12` [CP-DM-2-11-7, 2-methoxy-6-(4-nitrobenzyloxy)iminoestradiol]: the “Tubulin affinity (pIC50 ^3H-colchicine displacement)” value in series [1] was below 4.0. Also, in series [2], the “airway reactivity to intravenous methacholine (change in respiratory resistance) (FIG. 8)” value is recorded as “able to reduce the increase in respiratory resistance” and the “airway reactivity to intravenous methacholine (change in respiratory resistance) (FIG. 9)” value is listed as “able to reduce the increase in respiratory resistance”. Further, in series [3] (concentrations below 3 μM), the “effect on proliferation of MCF7 cells, in words (FIG. 3)” value is on record as “no detectable effect”. In addition, the “inhibitory effect on thrombin-induced proliferation” value with NIH3T3 cells amounted to 26±12%. In addition, in the series with HASM cells [4] (1 μM), the “effect on the shape of HASM cells” value is “no detectable effects on the shape of the HASM cells”. Further, the “migration in response to PDGF” value in the series with HASM cells [5] is “significantly reduced levels of migration”. Also, in the series on Airway fibroblasts, the “reduction of bFGF (300 pM) induced proliferation” value is 55±20%. For the same molecule, in series [6] (concentrations below 3 μM), the “effect on proliferation of BAEC, in words (FIG. 4)” value is reported as “no detectable effect”.
On to `COc1cc2c(cc1O)CC[C@@H]1[C@@H]2CC[C@]2(C)[C@@H](O)CC[C@@H]12` [2-methoxyestradiol, reference compound], for which the “Tubulin affinity (pIC50 ^3H-colchicine displacement)” value in series [1] is on record as 4.8. Besides, in series [2], the “airway reactivity to intravenous methacholine (change in respiratory resistance) (FIG. 8)” value was “able to reduce the increase in respiratory resistance” and the “airway reactivity to intravenous methacholine (change in respiratory resistance) (FIG. 9)” value is “able to reduce the increase in respiratory resistance”. Besides, in series [3] (concentration not given), the “effect on proliferation of MCF7 cells, in words (FIG. 3)” value is recorded as “effective inhibitor”. Moreover, in series [3] (proliferation in response to 5% FCS, pIC50 of 4.00 = inactive), the “MCF7 pIC50” value turned out to be 5.40. Also, in the series with HASM cells [4] (10 μM), the “effect on the shape of HASM cells” value is recorded as “caused extensive rounding of cells”. Also, in the series with HASM cells [5], the “migration in response to PDGF” value was “significantly reduced levels of migration”. In series [6] (concentration not given), the “effect on proliferation of BAEC, in words (FIG. 4)” value is recorded as “effective inhibitor”.
